We go through 17 compounds from ChEMBL document CHEMBL1132913, “Conformationally-restricted ligands for the histamine H1 receptor” (Bioorg Med Chem Lett, 2000).

Data set [1] is filed under the species Mus musculus. Briefly: Compound was tested for protection against 48/80 challenge in mice; No activity with both mice dying at 36 min. The class given is functional, organism-based.
Data set [2] has as its target T1, Histamine H1 receptor (Cavia porcellus, UniProt P31389). Briefly: In vitro antagonistic activity at the Histamine H1 receptor in guinea pig ileum. The class given is functional, tissue-based.
Data set [3] in a line: Partition coefficient (logP). The class given is physicochemical. The note with it: octanol/water.
The test system of data set [4] is Mus musculus. As to the kind of experiment: In vivo activity of compound at 10 mg/kg in 48/80 challenge expressed as number of mice surviving for more than 240 min; 0/2. The class given is functional. To be noted: 4 h.
Data set [5] relates to Mus musculus. Briefly: In vivo activity of compound at 40 mg/kg in 48/80 challenge expressed as number of mice surviving for more than 240 min; 1/2. The note with it: 4 h. Format: functional.
Data set [6] relates to Mus musculus. Briefly: In vivo activity of compound at 40 mg/kg in 48/80 challenge expressed as number of mice surviving for more than 240 min; 0/2. To be noted: 4 h. Format: functional.
Data set [7] is filed under the species Mus musculus. Briefly: Ability of compound to protect mice against a lethal dose of 48/80; No activity. The class given is functional, organism-based.
Data set [8] deals with Mus musculus. As to the kind of experiment: In vivo activity of compound at 10 mg/kg in 48/80 challenge expressed as number of mice surviving for more than 240 min; 1/2. The class given is functional. The note with it: 4 h.
Data set [9] has as its system Mus musculus. As to the kind of experiment: In vivo activity of compound at 40 mg/kg in 48/80 challenge expressed as number of mice surviving for more than 240 min; 2/2. Format: functional. The note with it: 4 h.
Data set [10] has as its system Mus musculus. Briefly: Effective dose (in vivo) by administering the compound in mice was determined. Format: functional.
For data set [11], the target named is T1, Histamine H1 receptor. As to the kind of experiment: In vitro antagonistic activity at the Histamine H1 receptor in guinea pig ileum; No inhibition. The class given is functional, tissue-based.
The species entered for data set [12] is Mus musculus. As to the kind of experiment: Effective dose of compound in the […] challenge in mice. Format: functional.
The species named for data set [13] is Mus musculus. Briefly: Effect of compound in the […] challenge in mice; No activity. The class given is functional, organism-based.

Structures are written as SMILES. pIC50: −log10 of the molar value. The source made the active and inactive calls. The calls are words filed in the database; no cut-off is given here.

T1 sequence (P31389 whole entry): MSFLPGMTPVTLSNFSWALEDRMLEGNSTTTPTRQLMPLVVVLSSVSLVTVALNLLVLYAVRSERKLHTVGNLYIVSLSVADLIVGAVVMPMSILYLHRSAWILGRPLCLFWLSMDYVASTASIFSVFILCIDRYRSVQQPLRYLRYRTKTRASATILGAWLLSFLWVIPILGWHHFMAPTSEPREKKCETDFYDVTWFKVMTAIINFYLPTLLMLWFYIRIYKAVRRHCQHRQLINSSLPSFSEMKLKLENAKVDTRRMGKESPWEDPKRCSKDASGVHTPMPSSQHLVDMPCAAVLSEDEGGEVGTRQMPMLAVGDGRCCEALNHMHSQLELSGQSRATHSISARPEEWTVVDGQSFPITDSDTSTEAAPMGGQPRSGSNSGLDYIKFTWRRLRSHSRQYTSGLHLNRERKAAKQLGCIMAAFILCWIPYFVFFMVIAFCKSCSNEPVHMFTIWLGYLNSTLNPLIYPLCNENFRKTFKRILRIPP

As to `CN1CC[C@H]2c3ccccc3[C@@H](c3ccccc3)[C@H]2C1`, the outcome in the data set listed under Mus musculus [1] was inactive.

Take `CN1CCC2=C(C1)C(c1ccccc1)c1ccccc12` (centres undefined) [PHENINDAMINE]: at Histamine H1 receptor [2], the pIC50 (in general, the IC50 on a negative log10 scale, so that one unit is a factor of ten) was 7.44.

As to `c1ccc(CCN2CCC3C(=C(c4ccccc4)c4ccccc43)C2)cc1` (centres undefined), the logP (in general, a log measure of how a compound divides between an organic and an aqueous phase) in data set [3] (read-out: logP) turned out to be 7.43. Moreover, in the data set with Mus musculus [4], the survival at 10 mg/kg came out at 0%. Moreover, the survival at 40 mg/kg in the data set with Mus musculus [5] was determined as 50%.

`c1ccc(CN2CCC3=C(C2)C(c2ccccc2)c2ccccc23)cc1` (centres undefined): in [3] (read-out: logP), the log partition coefficient (logP) amounted to 6.02. Further, the pIC50 against Histamine H1 receptor [2] was 6.33. Moreover, in the data set on Mus musculus [4], the survival at 10 mg/kg turned out to be 0%. Besides, the survival at 40 mg/kg in the data set on Mus musculus [6] came out at 0%.

As to `CCc1ccc(C2C3=C(CCN(C)C3)c3ccc(CC)cc32)cc1` (centres undefined), the survival at 10 mg/kg in the data set on Mus musculus [4] came out at 0%. In addition, the survival at 40 mg/kg in the data set with Mus musculus [6] turned out to be 0%.

Turning to `CCN1CC[C@@](O)(c2ccccc2)[C@H](C(=O)c2ccccc2)C1`, the pIC50 on Histamine H1 receptor [2] is 7.64. In the data set listed under Mus musculus [7], the result was inactive.

For `CN1CCC2C(=C(c3ccccc3)c3ccccc32)C1` (centres undefined), the logP in data set [3] (read-out: logP) is 5.23. For the same compound, the pIC50 against Histamine H1 receptor [2] is 7.55. Further, the survival at 10 mg/kg in the data set with Mus musculus [8] turned out to be 50%. In the data set on Mus musculus [9], this compound had a survival at 40 mg/kg of 100%.

`C1=C2C(=C(c3ccccc3)c3ccccc32)CNC1`: the logP in [3] (read-out: logP) is 4.41. On Histamine H1 receptor [2], this compound had a pIC50 of 7.28. Besides, the ED50 (in general, the midpoint of the dose-response relation) in the data set on Mus musculus [10] turned out to be 40 mg/kg. Further, the survival at 40 mg/kg in the data set on Mus musculus [6] and in the data set on Mus musculus [5] was 50% each time.

In data set [3], `c1ccc(CN2CCC3C(=C(c4ccccc4)c4ccccc43)C2)cc1` (centres undefined) showed a logP of 7.03. At Histamine H1 receptor [2], the pIC50 is 7.97. Also, the survival at 10 mg/kg with Mus musculus [4] was found to be 0%. For the same compound, the survival at 40 mg/kg in the data set on Mus musculus [6] worked out at 0%.

Take `CN1CC=C2C(=C(c3ccccc3)c3ccccc32)C1`: the logP in data set [3] (read-out: logP) came out at 4.94. In addition, the pIC50 against Histamine H1 receptor [2] was 6.66. In the data set on Mus musculus [4], this compound displayed a survival at 10 mg/kg of 0%. Also, in the data set with Mus musculus [6], the survival at 40 mg/kg was found to be 0%.

For `c1ccc(CCN2CCC3=C(C2)C(c2ccccc2)c2ccccc23)cc1` (centres undefined), the logP in [3] (read-out: logP) is 6.59. Moreover, in the data set with Mus musculus [4], the survival at 10 mg/kg amounted to 0%. In the data set on Mus musculus [6], this compound yielded a survival at 40 mg/kg of 0%.

As for `CCN1CC=C2C(=C(c3ccccc3)c3ccccc32)C1`, the IC50 result against Histamine H1 receptor [11] was “Not Active”.

Take `CN1CC[C@H]2c3ccccc3C(c3ccccc3)[C@H]2C1` (single isomer, unassigned): in the data set listed under Mus musculus [12], the ED50 was 40 mg/kg.

For `CCN1CCC2=C(C1)C(c1ccccc1)c1ccccc12` (centres undefined), the logP in data set [3] (read-out: logP) was found to be 4.92. This compound had a pIC50 at Histamine H1 receptor [2] of 7.77. The compound also displayed a survival at 10 mg/kg in the data set on Mus musculus [4] of 0%. Moreover, the survival at 40 mg/kg with Mus musculus [5] turned out to be 50%.

With `CN1CC[C@@](O)(c2ccccc2)[C@H](C(=O)c2ccccc2)C1`, the pIC50 against Histamine H1 receptor [2] was 7.59. Also, in the data set filed under Mus musculus [7], the outcome was inactive.

Consider `CCc1ccc([C@@H]2c3cc(CC)ccc3[C@@H]3CCN(C)C[C@H]23)cc1`, for which the ED50 entry in the data set filed under Mus musculus [13] is “inactive”.

Turning to `CCN1CCC2C(=C(c3ccccc3)c3ccccc32)C1` (centres undefined), the logP in data set [3] (read-out: logP) came to 5.76. The same compound yielded a survival at 40 mg/kg with Mus musculus [9] of 100%.
